# From patent US10172863B2, “Purine derivatives useful as HSP90 inhibitors” (Sloan-Kettering Institute for Cancer Research, priority 2009, dated 2019)
# Tested on: SKBr3 cell Hsp90
# Test: EC50 for Hsp90 binding in SKBr3 cell lysate
# Conditions: read-out: EC50, binding to SKBr3 cell Hsp90
row,EC50,Compound
1,394 nM,"CC(C)NCCCn1c(Sc2cc3c(cc2C2C=CCC2)OCO3)nc2c(N)ncnc21 (centres unmarked) [Compound 4I-12, 8-(6-(cyclopent-2-enyl)benzo[d][1,3]dioxol-5-ylthio)-9-(3-(isopropylamino)propyl)-9H-purin-6-amine]"
2,161 nM,"CC(C)NCCCn1c(Sc2cc3c(cc2-c2cc[nH]c2)OCO3)nc2c(N)ncnc21 [Compound 4H-3, 8-(6-(1H-pyrrol-3-yl)benzo[d][1,3]dioxol-5-ylthio)-9-(3-(isopropylamino)propyl)-9H-purin-6-amine]"
3,2520 nM,"CC(C)NCCCn1c(Sc2cc3c(cc2-c2ccc(N(C)C)cc2)OCO3)nc2c(N)ncnc21 [Compound 4A-5, 8-(6-(4-(dimethylamino)phenyl)benzo[d][1,3]dioxol-5-ylthio)-9-(3-(isopropylamino)propyl)-9H-purin-6-amine]"
4,6.5 nM,"CC(C)(C)CNCCn1c(Sc2cc3c(cc2-c2ccco2)OCO3)nc2c(N)ncnc21 [Compound 4C-5, 8-(6-(furan-2-yl)benzo[d][1,3]dioxol-5-ylthio)-9-(2-(neopentylamino)ethyl)-9H-purin-6-amine]"
5,6240 nM,"CC(C)NCCCn1c(Sc2cc3c(cc2-c2ccc(C(C)(C)C)cc2)OCO3)nc2c(N)ncnc21 [Compound 4A-2, 8-(6-(4-tert-butylphenyl)benzo[d][1,3]dioxol-5-ylthio)-9-(3-(isopropylamino)propyl)-9H-purin-6-amine]"
6,2080 nM,"CC(C)NCCCn1c(Sc2cc3c(cc2C2C=COC2)OCO3)nc2c(N)ncnc21 (centres unmarked) [Compound 4C-41, 8-(6-(2,3-dihydrofuran-3-yl)benzo[d][1,3]dioxol-5-ylthio)-9-(3-(isopropylamino)propyl)-9H-purin-6-amine]"
7,11.2 nM,"CC(C)NCCCn1c(Sc2cc3c(cc2-c2cc[nH]n2)OCCO3)nc2c(N)ncnc21 [Compound 5D-2, 8-((7-(1H-pyrazol-3-yl)-2,3-dihydrobenzo[b][1,4]dioxin-6-yl)thio)-9-(3-(isopropylamino)propyl)-9H-purin-6-amine]"
8,> 300 nM,"CC(C)NCCCn1c(Sc2cc3c(cc2-c2cnoc2)OCO3)nc2c(N)ncnc21 [Compound 4C-10, 9-(3-(isopropylamino)propyl)-8-(6-(isoxazol-4-yl)benzo[d][1,3]dioxol-5-ylthio)-9H-purin-6-amine]"
